According to patent US20040132819A1, “Appetite control method” (priority 2002, published 2004):
Where two headings read alike, the source gives them in different places.

Key:
[1] = test system: diet-restricted BALB/c mice; details: cited from earlier work
[2] = pre-satiated rats, subcutaneous, all doses; cited from earlier work
[3] = Deaths during artificial rearing; format: in vivo, Sprague-Dawley rat; details: combined rearings; vs 10 rats without DHA, p=0.054
Excerpt: Male rat pups were removed from dams on postnatal day 6 and artificially reared on rat milk formulas to day 18. This procedure has been described in detail in the literature by Sonnenberg et al, 1982; Smart et al, 1983 and 1984; and Auestad et al, 1989. Similar procedures have been also been described by Ward et al, 1998, and Wainwright et al, 1999. On postnatal day 6, rat pups were randomly assigned to one of the four experimental rat milk formula groups (Table 3.2). The rat pups were lightly anesthetized, fitted with an intragastric cannula, and placed individually in pint-sized plastic containers free floating in a waterbath maintained at 36±2° C. The cannulae for individual rat pups were each connected to syringes filled with one of the four experimental rat milk formulas using polyethylene tubing. The rat pups were fed by intermittent, intragastric infusion, from day 6 to day 18. The formula was delivered to the rat pups for 20 or 30 min each hour, depending on the age of the rat, using a programmable pump housed in a bench-top refrigerator. The pump settings were modified daily to deliver specific quantities of rat milk formula to the rat pups to support normal growth.
Two groups of rats were artificially reared one in February 2002 and one in April 2002. The plan was to cannulate a total of 64 rats, thirty-two per rearing and 8 rats per experimental formula group. […]

[4] = Postprandial leptin and circulating insulin levels; format: in vivo, Sprague-Dawley rat
Experimental: The rat pups were sacrificed by decapitation on day 20 after the food intake phase and final body weights were taken. The brain was removed, weighed, and quickly frozen (within 5 minutes) in liquid nitrogen. Brain tissue was stored in a −70° C. freezer. Blood was collected from the neck stump, mixed with heparin, placed on ice, and centrifuged to ensure adequate phase separation to prepare plasma. Plasma was stored at −70° C.
Postprandial leptin levels in the rats fed the ARA-containing formulas during the formula feeding phase were about 20-30% lower than for rats fed the formulas without ARA. Postprandial leptin levels in the rats fed the DHA-containing formulas were about 5-15% higher than for rats fed the formulas without DHA. No differences in circulating insulin levels were found among the groups.

[5] = test system: hypothalamic 20:4n-6 NAE and 20:4n-6 MAG; details: 125 or 250 μg intravenously, within 30 minutes, normal Sprague-Dawley rats; cited from earlier work
[6] = test system: rat brain monoacylglycerols; test: Monoacylglycerol (MAG) levels in rat brain; format: in vivo, Sprague-Dawley rat; details: ANOVA main effect
Experimental: (§1) Total lipid was extracted from rat brains using the Folch extraction method, typical for lipid extraction (Folch et al, 1957). The total lipid extract from each rat brain was separated into neutral lipid and phospholipid fractions using a silica cartridge. The neutral lipid fraction was further separated into MAG and NAE fractions using High Performance Liquid Chromatography (HPLC). Fatty acid composition of the MAG, NAE, and phospholipid fractions was determined using Gas-Liquid Chromatography (GLC) after derivatizing to the corresponding fatty acid methyl esters. The fatty acid composition results correspond to total fatty acids in the membrane phospholipids in brain, and the MAG and NAE fatty acid results represent the concentration of these fatty acyl derivatives in rat brains.
Rat brain samples, stored frozen at −70° C., were separated into the two hemispheres; one half was used for determination of fatty acids in phospholipid, MAG, and NAE fractions and the other half was refrozen at −70° C. The half brain for analysis was transferred to a 50-mL glass centrifuge tube. Eight mL of methanol was added and the sample homogenized using a Polytron Dispersing and Mixing System (Kinematica, Switzerland) until well blended. The homogenizer probe was rinsed with 2 mL methanol added directly into the centrifuge tube. […]

[7] = test system: rat brain phospholipid membrane; test: Fatty acid levels in rat brain phospholipid membrane; format: in vivo, Sprague-Dawley rat; details: ANOVA main effect
Experimental: as §1
(§2) Rat brain samples, stored frozen at −70° C., were separated into the two hemispheres; one half was used for determination of fatty acids in phospholipid, MAG, and NAE fractions and the other half was refrozen at −70° C. The half brain for analysis was transferred to a 50-mL glass centrifuge tube. Eight mL of methanol was added and the sample homogenized using a Polytron Dispersing and Mixing System (Kinematica, Switzerland) until well blended. The homogenizer probe was rinsed with 2 mL methanol added directly into the centrifuge tube. Twenty mL of chloroform was then added to the sample and mixed vigorously by shaking. The sample was left undisturbed at room temperature for at least 1 hour. Known amounts of internal standards, 9.91 μg of monoheptadecanoin and 3.32 μg of docosatrienoyl ethanolamine, were added. Six mL of 0.9% saline was then added and the sample mixed vigorously by shaking. The sample was then centrifuged for 7 minutes at 2000 rpm at 15° C. until the organic and aqueous layers were well separated using a Beckman Allegra™ 6R Centrifuge; Fullerton, Calif.). The chloroform (bottom) layer was aspirated into a clean 30-mL test tube. The sample was then evaporated to dryness under N2 and was either stored at −20° C. or reconstituted in 500 μL of chloroform. […]

brain NAEs and MAGs = details: piglets fed 0.2% AA (percent total fatty acids); cited from earlier work
[8] = test system: rat brain N-acylethanolamines; test: N-acylethanolamine (NAE) levels in rat brain; format: in vivo, Sprague-Dawley rat
Experimental: as §1, §2

In the case of CCCCC/C=C\C/C=C\C/C=C\C/C=C\CCCC(=O)NCCO [20:4n-6 NAE, 5,8,11,14-eicosatetraenamide, (N-2-hydroxyethyl)-(all-Z)], the “food consumption vs control group” value ([1]; 0.001 mg/kg intraperitoneally, 40% calorie restriction) is given as “consumed significantly more food”, the “food consumption vs control group” value ([1]; 0.7 or 4 mg/kg intraperitoneally) is given as “did not show any significant change” and the effect on eating [2] is given as “induced significant overeating”.
In the case of CC/C=C\C/C=C\C/C=C\C/C=C\C/C=C\C/C=C\CCC(=O)O [DHA, docosahexaenoic acid], the “rats that died when DHA was in the formula” value [3] is reported as 3 rats and the “postprandial leptin levels higher than in rats fed formulas without DHA” value ([4]; DHA-containing formulas) is reported as 5-15%.
For “leptin: peptide hormone secreted from adipose cells”, the “decrease of hypothalamic levels of 20:4n-6 NAE and 20:4n-6 MAG vs untreated controls” value [5] is listed as 40-50%.
For CCCCC/C=C\C/C=C\C/C=C\C/C=C\CCCC(=O)O [AA, arachidonic acid], the “postprandial leptin levels lower than in rats fed formulas without ARA” value ([4]; ARA-containing formulas during formula feeding phase) was 20-30%, the “main effects on n-6 or n-3 MAG in brain” value [6] was “no significant main effects” and the “main effect on AA and C22:4n-6 levels in brain phospholipids” value [7] was “increasing”. For the same molecule, the “main effect on brain phospholipid DHA” value [7] was “decreasing”, the “main effect on linoleic acid (C18:2n-6) and C20:3n-6 levels in brain phospholipids” value [7] was “decreasing” and the “20:4n-6 NAE increase in brain” value (brain NAEs and MAGs) was 4 fold. For the same molecule, the “main effect on 20:4n-6 NAE in brain” value ([8]; ANOVA main effect) was “increasing”, the “main effect on total n-6 NAE in brain” value ([8]; ANOVA main effect) was “increasing” and the “increase in 20:4n-6 NAE in brain” value ([8]; rats fed formulas with AA, p=0.008) was 40%.
